Data from patent US20230150951A1, “2,5- OR 2,6-DISUBSTITUTED HYDROQUINONE DERIVATIVES WITH AT LEAST ONE CARBOXY, SULFO OR AMIDO GROUP USEFUL AS MEDICAMENTS” (OM PHARMA SA, priority 2020, published 2023).

Tested on: bleomycin induced pulmonary fibrosis
Assay: Bleomycin induced pulmonary fibrosis, 21 days
Type: in vivo, mice
Conditions: day 21; pirfenidone 100 mg/kg, IVc-059a 15 mg/kg
Experimental: A total of 40 male Balb/c mice aged 8-10 weeks were used for the study.
Mice were anesthetized using an IP injection of xylazine and ketamine. Once an appropriate plane of anaesthesia was achieved, animals had 1.0 U/kg bleomycin sulphate instilled via intratracheal route. The total volume of liquid was 50 μL.
Dosing of IV and positive control (pirfenidone) started 24 hours after bleomycin instillation.
Drug solution was formulated immediately prior to dosing. For a dose of 15 mg/kg (enough for 12, 30 g mice) 4.5 mg of compound was weighed out. 75 μl (5%) DMSO added and mixed until drug is in solution. 150 μl (10%) solutol added and vortexed gently, 150 μl (10%) PEG400 added and vortexed gently. 1000 μl PBS (pH7) was added and matrix was measured to ensure pH 7.0 was maintained. Remaining PBS (to a total of 1500 μl) was added. Compound remained in solution. […]
Ashcroft score: Lungs from each animal were FFPE, sectioned and stained with H&E according to an in-house protocol. […] Each lung was scored using the Ashcroft grading system to measure degree of inflammation/fibrosis as per Hubner et al., 2008. […]
An entire lung from each animal was formalin fixed and stored in 70% ethanol. […] Percent area covered by trichrome staining was quantified using Qupath and ImageJ software.

For `O=C(O)c1cc(O)cc(CS(=O)(=O)Cc2cc(O)cc(C(=O)O)c2O)c1O` [IVc-059a, 3-((2,5-Dihydroxy-3-carboxyphenyl)methylsulfonylmethyl)-2,5-dihydroxybenzoic acid], the “Onset of fibrosis in mouse lung (Ashcroft score)” value was “reduced the onset of fibrosis in mouse lung”.
